Reference: patent US20180306819A1, “ANTI-PLATELET RESPONSE AND REACTIVITY TEST USING SYNTHETIC COLLAGEN” (JNC CORPORATION, priority 2012, published 2018)

B1: abciximab: Fab Fragment Chimeric monoclonal antibody 7E3 (GP IIbIIIa receptor blocker) (antibody, chains of the INN, looked up, V domains shown)
VH: EVQLQQSGTVLARPGASVKMSCEASGYTFTNYWMHWVKQRPGQGLEWIGAIYPGNSDTSYIQKFKGKAKLTAVTSTTSVYMELSSLTNEDSAVYYCTLYDGYYVFAYWGQGTLVTVSA
VL: EIVLTQSPVTLSVTPGDSVSLSCRASRDISNNLHWFQQTSHESPRLLIKYASQSMSGIPSRFSGSGSGTDFTLSINSVETEDFGMYFCQQTNSWPYTFGGGTKLEIK
modifications: Fab

Test system: normal human platelet rich plasma
Assay: Agonist-induced platelet aggregation in platelet rich plasma, PAP 8E aggregometer
Type: cell-based
Details: non-aspirinized plasma; for effect on ADP-induced aggregation: ADP 10 μM; for effect on Bio/Data collagen-induced aggregation: Bio/Data collagen 190 μg/mL; for effect on Chrono Log collagen-induced aggregation: Chrono Log collagen 10 μg/mL; for effect on arachidonic acid-induced aggregation: arachidonic acid 500 μg/mL; for effect on aggregation induced by lower concentrations of synthetic collagen: synthetic collagen 32 ng/mL and lower (32, 16, 8 ng/mL); for effect on aggregation induced by 64 ng/mL synthetic collagen: synthetic collagen 64 ng/mL
Procedure: ADP was obtained from Bio/Data Corporation, Horsham, Pa. Each vial was reconstituted with 1 mL of deionized water to make a 100 μM working solution. The final concentration of ADP in the aggregation cuvette was 10 μM.
Arachidonic acid was obtained from Bio/Data Corporation, Horsham, Pa. Each vial was reconstituted with 0.5 mL deionized water to make a 5 mg/mL working solution. The final concentration of arachidonic acid in the aggregation cuvette was 500 μg/mL.
Collagen was obtained from Bio/Data Corporation, Horsham, Pa. Each vial was reconstituted with 0.5 mL deionized water to make a 1.9 mg/mL working solution. The final concentration of Bio/Data collagen in the aggregation cuvette was 190 μg/mL.
Collagen was obtained from Chrono Log Corporation, Havertown, Pa. as a 1 mg/mL solution. A working solution of 100 μg/mL was made by dilution with physiologic saline. The final concentration of Chrono Log collagen in the aggregation cuvette was 10 μg/mL.
Synthetic collagen was provided by JNC Corporation, Yokohama, Japan at working concentrations of 80, 160, 320 and 640 ng/mL. The final concentrations of synthetic collagen in the aggregation cuvette were 64, 32, 16 and 8 ng/mL.
Approval for the collection of whole blood from healthy human volunteers was granted from the Institutional Review Board of the Health Sciences Division of Loyola University Chicago. Whole blood was drawn using a double syringe technique from the antecubital vein and anticoagulated by the addition of 1 part 3.2% sodium citrate to (9 parts blood to 1 part citrate). Citrated blood was centrifuged at 80×g at room temperature for 15 minutes to make platelet rich plasma (PRP). Supernatant PRP was collected and kept at room temperature in capped tubes. The remaining citrated blood was recentrifuged at 1,100×g for 15 minutes to make platelet poor plasma (PPP). The platelet count of the PRP was determined using an ICHOR II Analyzer, Helena Laboratories, Beaumont, Tex. Platelet count in the PRP was adjusted to 250,000-300,000/μl by the addition of homologous PPP.
Platelet aggregation was measured using a PAP 8E platelet aggregometer (Bio/Data). Each well was blanked using PPP. 25 μl of saline or antiplatelet drug and 200 μl of PRP were added to cuvettes containing magnetic stir bars and incubated for three minutes to equilibrate the sample to 37° C. 25 μl of agonist was added to each cuvette and the aggregation profile was monitored until a plateau was achieved. Results were tabulated in terms of maximal aggregation level. Under some reaction conditions, reversible aggregation was observed. This was most commonly observed with ADP and arachidonic acid-induced aggregation in the presence of ticagrelor or cilostazol. Final aggregation levels were also tabulated.

Molecule | inhibition at 25 µM (Homo sapiens, Platelet, drug at 25 μM, read-out: inhibition of ADP-induced aggregation) [%] | effect on ADP-induced aggregation | effect on ADP-induced aggregation (listed as Cilostazol) | effect on Bio/Data collagen-induced aggregation | effect on Chrono Log collagen-induced aggregation | effect on arachidonic acid-induced aggregation | arachidonic acid-induced aggregation level (drug at concentrations ≥12.5 μM, 95% in the absence of drug) [%] | effect on aggregation induced by lower concentrations of synthetic collagen | effect on aggregation induced by 64 ng/mL synthetic collagen | inhibition of agonist-induced aggregation (all agonists) (concentration range 1.25-5 μg/mL, FIG. 11)
O=C1CCc2cc(OCCCCc3nnnn3C3CCCCC3)ccc2N1 [cilostazol, Cilostazol] | ~30 | minimally affected | weaker, concentration-dependent inhibition | did not inhibit aggregation | did not inhibit aggregation | strongly inhibited | ~20 | the anti-platelet effect of higher concentrations of cilostazol could be observed | did not inhibit aggregation | 
CCCSc1nc(N[C@@H]2C[C@H]2c2ccc(F)c(F)c2)c2nnn([C@@H]3C[C@H](OCCO)[C@@H](O)[C@H]3O)c2n1 [ticagrelor, (1S,2S,3R,5S)-3-[7-[[(1R,2S)-2-(3,4-difluorophenyl)cyclopropyl]amino]-5-propylsulfanyltriazolo[4,5-d]pyrimidin-3-yl]-5-(2-hydroxyethoxy)cyclopentane-1,2-diol] |  | strongly inhibited |  | Neither Bio/Data collagen, Chrono Log collagen nor 64 ng/mL synthetic collagen was markedly impacted | Neither Bio/Data collagen, Chrono Log collagen nor 64 ng/mL synthetic collagen was markedly impacted | inhibited to a similar extent |  | antiplatelet effects of Ticagrelor® could be identified | Neither Bio/Data collagen, Chrono Log collagen nor 64 ng/mL synthetic collagen was markedly impacted | 
B1 |  | inhibited aggregation |  | only observed at the 5 μg/mL concentration | only observed at the 5 μg/mL concentration | most sensitive for detecting the presence of abciximab |  | most sensitive for detecting the presence of abciximab | inhibited by abciximab to a comparable degree | concentration-dependent inhibition
